{"source": "patent US10912761B2", "about": "“Methods and compositions involving RAD51 inhibitors” (The University of Chicago, priority 2012, dated 2021)", "key": {"[1]": {"experiment": "Glutathione stability experiments (HPLC)", "format": "physicochemical", "conditions": "L-glutathione 5 mol equiv, DMSO, 37° C., hourly HPLC; up to 24 hours", "experimental": "FIG. 1. Reaction of RI-1, RI-2, and 9b with glutathione. Glutathione is a tripeptide that contains a nucleophilic sulfhydryl group. Glutathione may react irreversibly with a Michael acceptor compound containing a suitable leaving group at the 4-position.\nCompound (10 mg) and L-glutathione (5 mol equiv) were placed in a round-bottomed flask under argon and dissolved in DMSO (1 mL). The reaction was heated to 37° C. and stirred. Aliquots of the reaction mixture were removed every hour, including one at t=0 min, and analyzed by HPLC. Ratio of substrate and glutathione adduct was recorded and the expected glutathione adduct was then identified using mass spectrometry"}, "[2]": {"biological_target": "T1, human RAD51 protein (Homo sapiens, UniProt Q06609)", "T1 sequence (Q06609 1-339)": "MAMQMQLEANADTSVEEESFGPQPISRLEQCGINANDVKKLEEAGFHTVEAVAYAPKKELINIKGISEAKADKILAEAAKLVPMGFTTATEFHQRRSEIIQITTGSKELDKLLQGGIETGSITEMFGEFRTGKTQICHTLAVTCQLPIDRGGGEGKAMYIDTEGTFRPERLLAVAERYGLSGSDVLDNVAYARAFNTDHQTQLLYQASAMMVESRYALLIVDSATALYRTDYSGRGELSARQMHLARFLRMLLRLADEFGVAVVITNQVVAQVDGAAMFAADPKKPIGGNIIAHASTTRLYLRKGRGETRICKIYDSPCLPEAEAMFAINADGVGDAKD", "experiment": "FP-based DNA binding assay (RAD51 binding to fluorescently labeled ssDNA)", "format": "biochemical", "set-up": "made in house", "conditions": "for time dependence of inhibitory activity on the DNA binding activity of RAD51: compound added after the protein has been released from the beads (FIG. 2B)", "experimental": "The synthesized compounds were tested for biological activity in a two-stage manner. They were first evaluated for their ability to inhibit the binding of human RAD51 protein to ssDNA. This primary assay utilizes a fluorescence polarization (FP) based method that involves incubation of purified RAD51 protein with oligonucleotides, which are end-labeled with a fluorescent tag. The binding of RAD51 to this substrate ssDNA is quantified as a function of polarization of light emitted by the fluorescent tag. Chemical analogs were then tested further using secondary cell-based assays. Since cell lethality from RI-1 is thought to be a function of cellular RAD51 inhibition for RI-1, LD50 values were used as a surrogate measurement of in vivo activity against RAD51 in cells. This cell-based assay was also simultaneously utilized to evaluate for compound-induced sensitization of cells to the cross-linking chemotherapeutic drug MMC, thereby confirming that toxic effects are secondary to HR inhibition.\nHuman RAD51 protein was prepared as previously described (Budke et al., 2012). RAD51 was incubated with 100 nM (nucleotide concentration) of a 45-mer oligo-dT 5′ Alexa 488 end-labeled substrate. Binding was measured as a function of fluorescence polarization (FP) of the Alexa 488 tag. 50 μl reactions were performed in 20 mM HEPES, pH 7.5, 2 mM ATP, 10 mM MgCl2, 30 mM NaCl, 2% glycerol, 250 μM BSA, and 4% DMSO. Black polystyrene flat-bottom 384-well reaction plates were read using a Tecan Infinite F200 Pro plate reader, equipped with 485(20)/535(25) FP filters. For experiments used to determine IC50 values, RAD51 concentrations (typically 190-290 nM) were selected to generate FP signal of 50-80% maximum in the absence of any inhibitory compound. Reported IC50 values represent the mean result of at least three replicate wells, and reported errors connote standard deviation."}, "[3]": {"test_system": "immortalized human cells", "experiment": "MMP-1-60 toxicity to immortalized human cells with or without pre-incubation in media", "format": "cell-based", "conditions": "4 hours of pre-incubation with tissue culture media vs. no pre-incubation", "experimental": "FIGS. 6A-6B: A. ssDNA binding activity of RAD51 in response to RAD51 antagonists. […] B. MMP-1-60 toxicity to immortalized human cells.\nHEK293 cells were plated into 96-well tissue culture plates at a density of 300 cells per well in the presence or absence of 50 nM MMC (Ben Venue Laboratories) for 24 hours at 37° C., 5% CO2. Media was subsequently replaced with fresh media containing 0.5% DMSO plus a candidate compound for an additional 24 hours. Compounds were then removed, and cultures were allowed to grow to a 50-70% confluence. Average survival from at least three replicates was measured using CellGlo reagent (Promega) or via a previously described sulforhodamine B method (Jayathilaka et al., 2008)."}, "[4]": {"biological_target": "T1, human RAD51 protein", "experiment": "DNA binding competition assay: bead-immobilized RAD51 treated with compound, washed, cleaved, tested by FP (reversible vs. irreversible inhibition)", "conditions": "washed extensively, protein cleaved from beads (FIG. 2C)", "description": "Reversible vs. irreversible inhibition of RAD51 by compound was tested by incubating compounds with RAD51 while still attached to beads and prior to washing. […] Reversible vs. irreversible inhibition of RAD51. Biotinylated RAD51 was immobilized on streptavidin polyacrylamide beads. The RAD51-coated beads were incubated with compound and subsequently washed extensively to remove any compound that was not covalently attached. The treated protein was subsequently cleaved from the beads and tested for DNA binding activity using our standard FP-based assay.\nTagged RAD51 was immobilized on streptavidin-conjugated polyacrylamide beads (Ultralink, Pierce) and incubated for 30 min at 37° C. with candidate compounds in 20 mM HEPES, pH 7.5, 30 mM NaCl, 2% glycerol, 4% DMSO. The polyacrylamide beads were then washed twice with ice-cold wash buffer (20 mM Tris-HCl, pH 8.0, 300 mM NaCl) containing 4% DMSO and then once with ice-cold wash buffer without DMSO. RAD51 protein was subsequently eluted from beads with TEV protease (gift from Phoebe Rice) and analyzed for DNA binding activity using the above FP-based DNA binding assay."}, "[5]": {"test_system": "SSA in HEK293 cells (SA-GFP reporter)", "experiment": "Quantification of SSA efficiency in SA-GFP reporter cells", "format": "cell-based, human", "conditions": "24 hours", "experimental": "(§1) FIG. 3. Relative DNA repair efficiencies. […] Reporter-containing HEK293 cells were electroporated with an I-SceI endonuclease-expressing plasmid, incubated with compounds as indicated for 24 hours, and subjected to FACS analysis 24 hours thereafter. […] The reporter construct that measures HR repair consists of two non-functional copies of green fluorescence protein (GFP), one of which is interrupted by an I-SceI endonuclease site. Induction of a DNA break at the I-SceI site can lead to repair by homologous gene conversion that generates a functional copy of GFP (Pierce et al., 1999). A second parallel assay makes use of cells that contain a different reporter that measures single-strand annealing (SSA), which is an alternative method of re-ligating DNA when HR cannot be completed. SSA efficiency is known to be elevated in situations where RAD51 function has been disrupted (Mansour et al., 2008, Stark et al., 2004, and Bennardo et al., 2008). […] HEK293 cells stably transfected with the DR-GFP or SA-GFP reporters were provided by Jeremy Stark (Bennardo et al., 2008). 0.5-1.0×10^7 cells at 80% confluence were electroporated with 30-60 μg pCβASce (or pCAGGS) in 4 mm cuvettes, using the following settings: 240-350 V, 975 μF. […] Compounds were removed and cells were incubated for an additional 24 hours in normal media, following which they were analyzed with a Becton-Dickinson FACScan. […]"}, "[6]": {"test_system": "HR repair in HEK293 cells (DR-GFP reporter)", "experiment": "Quantification of HR efficiency in DR-GFP reporter cells", "format": "cell-based, human", "conditions": "24 hours", "experimental": "as §1"}, "[7]": {"test_system": "HEK293 cells", "experiment": "Cell toxicity assay: sensitization to MMC", "format": "cell-based, human", "conditions": "24 hours MMC, then 24 hours compound, 5-7 days drug-free", "excerpt": "Cells were then allowed to grow in drug-free media for an additional 5-7 days. Average survival for each condition is normalized to the MMC-free control of that condition."}}, "note": "pIC50: −log10 of the molar value. Entries after “also recorded” stand apart in the source; their conditions may differ."}
{"smiles": "O=C1C(I)=C(N2CCOCC2)C(=O)N1c1ccc(Cl)c(Cl)c1", "note": "[Compound 9b, 1-(3,4-Dichlorophenyl)-3-iodo-4-morpholino-1H-pyrrole-2,5-dione]", "values": [{"measurement": "reaction with glutathione", "setting": "[1]", "value": "no detectable compound at the first time point measured"}]}
{"smiles": "COc1ccc(C2=C(SCCN(C)C)C(=O)N(c3ccc(Cl)c(Cl)c3)C2=O)cc1", "note": "[MMP-1-60, 1-(3,4-dichlorophenyl)-3-((2-(dimethylamino)ethyl)thio)-4-(4-methoxyphenyl)-1H-pyrrole-2,5-dione]", "values": [{"measurement": "RAD51 inhibitory activity (ssDNA binding), relative", "setting": "[2]; FIG. 6A", "value": "intermediate to RI-1 and RI-2"}, {"measurement": "cell toxicity with vs. without pre-incubation (stability)", "setting": "[3]", "value": "comparable cell toxicity"}]}
{"smiles": "O=C1C(Cl)=C(N2CCOCC2)C(=O)N1c1ccc(Cl)c(Cl)c1", "note": "[RI-1, 1-(3,4-Dichlorophenyl)-3-chloro-4-morpholino-1H-pyrrole-2,5-dione, reference compound]", "values": [{"measurement": "DNA binding activity of RAD51 treated with compound prior to washing", "setting": "[4]; 10 μM compound", "value": "significantly inactivated"}, {"measurement": "reaction with glutathione", "setting": "[1]", "value": "reduced glutathione reactivity"}, {"measurement": "time dependence of inhibitory activity on the DNA binding activity of RAD51", "setting": "[2]", "value": "time-dependent"}, {"measurement": "SSA efficiency", "setting": "[5]; 20 μM", "value": "stimulation of SSA"}, {"measurement": "HR repair efficiency", "setting": "[6]; 20 μM", "value": "inhibition of HR"}]}
{"smiles": "COc1ccc(C2=C(N3CCOCC3)C(=O)N(c3ccc(Cl)c(Cl)c3)C2=O)cc1", "note": "[RI-2, 1-(3,4-Dichloro-phenyl)-3-(4-methoxy-phenyl)-4-morpholin-4-yl-pyrrole-2,5-dione]", "values": [{"measurement": "DNA binding activity of RAD51 treated with compound prior to washing", "setting": "[4]; concentrations up to 240 μM", "value": "no measurable loss of DNA binding activity"}, {"measurement": "reaction with glutathione", "setting": "[1]", "value": "no reactivity toward glutathione"}, {"measurement": "pIC50", "setting": "[2]; RAD51 binding to ssDNA, FP, read-out: IC50 in the standard DNA binding assay", "value": 4.35}, {"measurement": "time dependence of inhibitory activity on the DNA binding activity of RAD51", "setting": "[2]", "value": "no time-dependent increase"}, {"measurement": "SSA efficiency", "setting": "[5]; 60 μM", "value": "very similar effects; also recorded: stimulation of SSA"}, {"measurement": "HR repair efficiency", "setting": "[6]; 60 μM", "value": "very similar effects; also recorded: inhibition of HR"}, {"measurement": "sensitization to cross-linking chemotherapy (MMC)", "setting": "[7]", "value": "sensitizes human cells to cross-linking chemotherapy"}]}
